Reference: article PMC8652888, “Angiogenesis, Anti-Tumor, and Anti-Metastatic Activity of Novel α-Substituted Hetero-Aromatic Chalcone Hybrids as Inhibitors of Microtubule Polymerization” (Frontiers in Chemistry, 2021)
Several values for one entry are separate records, joined by “and”; a condition that tells them apart may be missing. Equal values may be shown once. Read-outs that look alike come from different tables or passages of the source.

Experiments:
[1] = test system: tubulin; test: Tubulin polymerization in vitro (fluorescence); type: biochemical; details: 37°C; read-out: IC50, inhibition of tubulin polymerization
Description: Data are presented as the mean ± SD from three independent experiments. **p < 0.01 vs. the vehicle control.
An in vitro assay was performed to monitor the time-dependent polymerization of tubulin into microtubules. The 96-well cell culture plate was incubated at 37°C for 10 min, and test compounds and reference compounds were prepared with a 10× analyte stock solution. Five microliters of 10× analyte stock solution was added to a 96-well plate, and the microplate reader was heated at 37°C for 1 min. Immediately 85 μl of Tubulin Stock was drawn and mixed with the above mixture to prepare the tubulin reaction solution, and 50 μl of the tubulin reaction solution was to each well. The multifunctional microplate reader measured the absorbance, and the measured fluorescence value represents the level of tubulin in the polymerized state in the reaction solution.

[2] = test system: Caspase-3/-7/-9 and PARP in MCF-7 cells; test: Western blot of apoptosis-related proteins; type: cell-based, human
Description: The Caspase family proteins are considered to be critical regulators of cell apoptosis and facilitate cellular disassembly. Among them, Caspase-9 is termed as a typical caspase and is usually activated first, which in turn activates the “executioner” of apoptosis induction, in particular, Caspase-3. It is known that the […] of poly (ADP-ribose) polymerase (PARP), a downstream substrate of Caspase-3, is a common feature of nuclear fragmentation and chromatin condensation ([Hensley and Kyprianou, 2013]). Thus, the association between 7m-induced apoptosis and the expression of these proteins was investigated by Western blot analysis. MCF-7 cells were treated with 7m at different concentrations (100, 200, and 400 nM) for 48 h.
(§1) MCF-7 cells were seeded into […] dishes at a density of 6 × 10^5/dish and incubated for 24 h. After treating the cells with the compound 7m, the cells were cultured for 48 h and washed with PBS, and then the soluble and insoluble tubulin fractions were collected. Protein quantification was performed by BCA Protein Concentration Determination Kit following centrifugation at 12,000 rpm for 10 min at 4°C. Cell lysates were separated by SDS-PAGE at 80 V constant voltage for 30–40 min. […] After 5% skim milk was blocked for 1 h, the primary antibody was added and incubated overnight before being washed three times with PBST. The secondary antibody was incubated for 2 h at room temperature the next day and subsequently washed three times with PBST. Then the signal was detected with ECL.

[3] = test system: MCF-7; test: Antiproliferative activity, SRB assay; type: cell-based, human;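 also: proliferation of MCF7 cells quantified by sulforhodamine B staining, with optical density read at 560 nm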
Description: The synthesized compounds were first evaluated for their cytotoxic effect on MCF-7 (human breast adenocarcinoma), U937 (histiocytic lymphoma cancer), HepG2 (human liver cancer) cells, and MGC-803 (human gastric cancer) using the SRB and CCK-8 assay.
The primary tumor cells were purchased from a professional biomedical company. First, the primary tumor cells were incubated in a cell culture incubator at 37°C and 5% CO2. After the cell fusion reached 85%–95%, subculture was performed, and the tumor cells obtained at this time were used for subsequent related experiments. The CCK-8 method was used to inhibit the proliferation of U937 tumor cells, and the SRB method was used to inhibit the proliferation of MCF7 and HepG2 tumor cells.
Cells were distributed into 96-well plates with a density of 3 × 10^3–4 × 10^3 cells per well and incubated for 24 h in a 5% CO2 incubator at 37°C, followed by treatment with study compounds at different concentrations at 37°C for 72 h. One hundred microliters of 10% (w/v) trichloroacetic acid was added to each well, fixed at 4°C for 30 min, and dried at 65°C. Then 100 μl of 0.4% SRB was added to each well and stained on a shaker for 20 min at room temperature. The excess dye solution was washed with newly prepared 1% glacial acetic acid and dried at 65°C. One hundred fifty microliters of 10 mM unbuffered Trisbase was added to each well of the plate and shaken for 5 min to dissolve the dye. The microplate reader measured the optical density (OD) at a wavelength of 560 nm.

[4] = test system: MCF-7 cells; test: Apoptosis analysis, Annexin-V FITC/PI flow cytometry; type: cell-based, human; details: for Late-apoptosis (Q2 of Annexin/PI plot), single runs / Pro-apoptosis (Q3 of Annexin/PI plot), single runs / percentage of apoptotic cells (early and late apoptosis): 48 h
Description: To test whether compound 7m induced reduction in cell viability was responsible for the induction of apoptosis, MCF-7 cells were stained with Annexin-V FITC/PI staining, and the number of apoptotic cells was estimated by flow cytometry.
The MCF-7 cells in 12-well plates (8 × 10^4 cells/well) were cultured for 24 h at 37°C in 5% CO2 and then incubated with 7m at concentrations of 100, 200, 400 nM, or vehicle to induce cell apoptosis for 48 h. Then the cells floating in the supernatant were combined with the adherent fraction and washed with PBS three times. The cells were incubated with Annexin V-FITC and PI for 15 min at 37°C in the dark. Apoptosis was quantified using a flow cytometer (Becton, Dickinson and Company, USA).

[5] = test system: HUVECs; test: Wound healing assay; type: cell-based, human; details: 1, 5, 25 μΜ, 48 h
Description: A wound healing assay was, thus, performed to evaluate the capacity of 7m to inhibit cell motility. […] Then the invasion inhibitory activities of 7m were further detected using Transwell assay with HUVECs cells treated with 0, 1, 5, and 25 μΜ of 7m. In this assay, […] were seeded into upper chambers which were pre-coated with Matrigel matrix in order to evaluate the cellular invasion.
MCF-7 cells and HUVECs cells were grown in 24-well plates at a density of 1 × 10^6 cells per well for 24 h. Scratches were made in confluent monolayers by […] pipette tips. The media containing different concentrations of 7m were added to the Petri dishes. […] The migration distance of cells migrated to the wound area was measured manually.

[6] = test system: microtubule network in MCF-7 cells; test: Immunofluorescent staining of microtubule network; type: cell-based, human; details: 0.4 μM, 24 h
Description: Microtubule dynamics play an essential role in cancer cell growth. To examine whether compound 7m is able to disrupt microtubule dynamics, an immunofluorescent assay was carried out in MCF-7 cells.
Then the cells were washed with PBS three times. After permeabilization with 0.25% Triton X-100 for 5 min, the cells were washed with PBS three times and blocked in 5% bovine serum albumin (BSA) for 40 min. The cells were incubated with rabbit anti-α-tubulin primary antibody containing 5% BSA at room temperature for 5–6 h and washed with PBS three times. Cells were finally visualized under a fluorescence microscope.

[7] = test system: Cyclin B1, p-Cdc2 and P21 in MCF-7 cells; test: Western blot of cell cycle-related proteins; type: cell-based, human; details: for P21, band quantification / cyclinB1, band quantification / pcdc2, band quantification: two runs
Description: Cell cycle regulatory proteins Cyclin B1 and Cdc2 are key proteins to control the transition from G2 to M phase through increasing the G2/M intracellular fraction in cell cycle distribution. Some agents produce cell cycle arrest by decreasing Cyclin B1 level ([Xiao et al., 2018]), while others increase the Cyclin B1 level, depending on the cell types ([Zhang et al., 2016]).
as §1

Question: How did the IC50 [1] turn out when “3-(benzofuran-6-yl)-2-methyl-1-(3,4,5-trimethoxyphenyl)prop-2-en-1-one [Compound 7m]” was run?
Answer: The IC50 was 12200 nM.

Question: And the “Caspase3, band quantification” value ([2]; 100nM, two runs)?
Answer: The value was 1.6879 and 1.67.

Question: What about the “Caspase7, band quantification” value ([2]; 100nM, two runs) of the same substance?
Answer: The value was 1.25 and 1.4891.

Question: And the “Caspase9, band quantification” value ([2]; 100nM, two runs)?
Answer: The value was 0.8806.

Question: What about the “Cleaved caspase 3, band quantification” value ([2]; 100nM, two runs) of the same substance?
Answer: The value was 0.4362 and 0.4615.

Question: And the “Cleaved caspase 7, band quantification” value ([2]; 100nM, two runs)?
Answer: The value was 0.3077 and 0.3272.

Question: And the “Cleaved caspase 9, band quantification” value ([2]; 100nM, two runs)?
Answer: The value was 0.7024 and 0.6835.

Question: What about the “Cleaved parp, band quantification” value ([2]; 100nM, two runs) of the same substance?
Answer: Its value is 0.5428 and 0.547.

Question: What about the “Caspase3, band quantification” value ([2]; 200nM, two runs) of the same substance?
Answer: The value was 1.615 and 1.544.

Question: And the “Caspase7, band quantification” value ([2]; 200nM, two runs)?
Answer: Its value is 1.204 and 1.374.

Question: And the “Caspase9, band quantification” value ([2]; 200nM, two runs)?
Answer: The value was 0.8807 and 0.8294.

Question: What about the “Cleaved caspase 3, band quantification” value ([2]; 200nM, two runs) of the same substance?
Answer: Its value is 0.3538 and 0.3842.

Question: What about the “Cleaved caspase 7, band quantification” value ([2]; 200nM, two runs) of the same substance?
Answer: Its value is 0.3681 and 0.3821.

Question: What about the “Cleaved caspase 9, band quantification” value ([2]; 200nM, two runs) of the same substance?
Answer: Its value is 0.8845 and 0.8641.

Question: And the “Cleaved parp, band quantification” value ([2]; 200nM, two runs)?
Answer: Its value is 0.6141 and 0.6251.

Question: What about the “PARP, band quantification” value ([2]; 200nM, two runs) of the same substance?
Answer: Its value is 0.2886 and 0.4533.

Question: What about the “Caspase3, band quantification” value ([2]; 400nM, two runs) of the same substance?
Answer: The value was 1.359 and 1.362.

Question: What about the “Caspase7, band quantification” value ([2]; 400nM, two runs) of the same substance?
Answer: Its value is 1.134 and 1.286.

Question: And the “Caspase9, band quantification” value ([2]; 400nM, two runs)?
Answer: The value was 0.8246 and 0.7921.

Question: And the “Cleaved caspase 3, band quantification” value ([2]; 400nM, two runs)?
Answer: Its value is 0.6252 and 0.6493.

Question: What about the “Cleaved caspase 7, band quantification” value ([2]; 400nM, two runs) of the same substance?
Answer: The value was 0.3556 and 0.4028.

Question: What about the “Cleaved caspase 9, band quantification” value ([2]; 400nM, two runs) of the same substance?
Answer: Its value is 0.8063 and 0.765.

Question: And the “Cleaved parp, band quantification” value ([2]; 400nM, two runs)?
Answer: Its value is 0.6767 and 0.7365.

Question: And the “activation of Caspase-3/-7/-9” value ([2]; 100, 200, 400 nM, 48 h)?
Answer: The value was “concentration-dependent activation”.

Question: What about the “cleavage of PARP” value ([2]; 100, 200, 400 nM, 48 h) of the same substance?
Answer: Its value is “significant cleavage of PARP”.

Question: And the IC50 ([3]; 72 h, triplicate, mean ± SD, read-out: IC50 ± SD, MCF-7)?
Answer: The IC50 was 183 ± 32 nM.

Question: What about the IC50 ([3]; Table 3, triplicate, read-out: IC50 ± SD, MCF7) of the same substance?
Answer: Its IC50 is 183 ± 32 nM.

Question: And the IC50 ([3]; three single determinations, read-out: MCF-7 (raw data of table 3, IC50))?
Answer: The IC50 was 146 nM and 223 nM and 180 nM.

Question: And the “Late-apoptosis AVERAGE” value ([4]; 100nM)?
Answer: The value was 37.3.

Question: What about the “Pro-apoptosis AVERAGE” value ([4]; 100nM) of the same substance?
Answer: The value was 6.425.

Question: What about the “Late-apoptosis (Q2 of Annexin/PI plot), single runs” value (“Late-apoptosis … single runs” below) ([4]; 100nM) of the same substance?
Answer: The value was 36 and 38.6.

Question: What about the “Pro-apoptosis (Q3 of Annexin/PI plot), single runs” value (from here on “Pro-apoptosis … single runs”) ([4]; 100nM) of the same substance?
Answer: The value was 7.59 and 5.26.

Question: What about the “percentage of apoptotic cells (early and late apoptosis)” value (from here on “percentage of apoptotic cells”) ([4]; 100nM) of the same substance?
Answer: The value was 44%.

Question: What about the “Late-apoptosis AVERAGE” value ([4]; 200nM) of the same substance?
Answer: Its value is 48.8.

Question: What about the “Pro-apoptosis AVERAGE” value ([4]; 200nM) of the same substance?
Answer: Its value is 3.01.

Question: What about the “Late-apoptosis … single runs” value ([4]; 200nM) of the same substance?
Answer: The value was 49.3 and 48.3.

Question: And the “Pro-apoptosis … single runs” value ([4]; 200nM)?
Answer: The value was 3.29 and 2.73.

Question: What about the “percentage of apoptotic cells” value ([4]; 200nM) of the same substance?
Answer: Its value is 53%.

Question: And the “Late-apoptosis AVERAGE” value ([4]; 400nM)?
Answer: The value was 52.3.

Question: And the “Pro-apoptosis AVERAGE” value ([4]; 400nM)?
Answer: Its value is 4.22.

Question: And the “Late-apoptosis … single runs” value ([4]; 400nM)?
Answer: Its value is 52.8 and 51.8.

Question: And the “Pro-apoptosis … single runs” value ([4]; 400nM)?
Answer: The value was 4.66 and 3.78.

Question: What about the “percentage of apoptotic cells” value ([4]; 400nM) of the same substance?
Answer: The value was 57%.

Question: And the “closure of wound scratching” value [5]?
Answer: The value was “obviously decreased the closure of wound scratching”.

Question: What about the “effect on microtubule organization” value [6] of the same substance?
Answer: Its value is “significant disruption of microtubule organization”.

Question: And the “P21, band quantification” value ([7]; 100nM)?
Answer: The value was 0.4949 and 0.5407.

Question: And the “cyclinB1, band quantification” value ([7]; 100nM)?
Answer: Its value is 1.376 and 1.378.

Question: And the “pcdc2, band quantification” value ([7]; 100nM)?
Answer: The value was 0.4445 and 0.4619.

Question: And the “P21, band quantification” value ([7]; 200nM)?
Answer: The value was 0.4098 and 0.48.

Question: And the “cyclinB1, band quantification” value ([7]; 200nM)?
Answer: The value was 1.5822 and 1.545.

Question: What about the “pcdc2, band quantification” value ([7]; 200nM) of the same substance?
Answer: Its value is 0.4706 and 0.4291.

Question: What about the “P21, band quantification” value ([7]; 400nM) of the same substance?
Answer: The value was 0.006743 and 0.008008.

Question: And the “cyclinB1, band quantification” value ([7]; 400nM)?
Answer: Its value is 1.8972 and 1.928.

Question: What about the “pcdc2, band quantification” value ([7]; 400nM) of the same substance?
Answer: The value was 0.2956 and 0.3089.

Question: What about the “Cyclin B1 expression” value ([7]; 100, 200, 400 nM) of the same substance?
Answer: The value was “overexpressed”.

Question: What about the p-Cdc2 protein level ([7]; 100, 200, 400 nM) of the same substance?
Answer: Its p-Cdc2 protein level is “dose-dependently decreased”.
